Each structure is given as a SMILES string.

This assay deals with T1, human collagenase-3 catalytic domain enzyme (MMP13) (Homo sapiens, UniProt P45452).
T1 construct: human collagenase-3 catalytic domain enzyme
The experiment in a line: MMP13CD Thiopeptolide Assay. It counts as biochemical. The method, then:
MMP13CD Thiopeptolide Assay: Proteolysis of the thiopeptolide substrate Ac-Pro-Leu-Gly-thioester-Leu-Leu-Gly-OEt is used as the primary screen to determine IC50 values for MMP13 inhibitors. A 100 μl reaction contains 50 mM HEPES, 10 mM CaCl2, pH 7.0 (RT), 1 mM 5,5′-dithiobis(2-nitrobenzoic acid) (DTNB), 100 μM substrate, inhibitor in 2.0% DMSO and 2.5 nM human collagenase-3 catalytic domain enzyme. Inhibitors are screened from 100 μM to 0.5 nM. […] Percentage of control velocity in inhibited treatments is plotted against inhibitor concentration to calculate IC50 values.
For orientation: IC50 means the concentration needed to halve the response being measured. As to `O=C(NCc1cccnc1)c1ccc2[nH]c(=O)n(Cc3ccccc3)c(=O)c2c1` [Example 5, 3-Benzyl-2,4-dioxo-1,2,3,-tetrahydroquinazoline-6-carboxylic acid (3-pyridylmethyl)amide], 193 nM corresponded to half-maximal inhibition (IC50).
Regarding `COc1ccc(CNC(=O)c2ccc3c(c2)c(=O)n(Cc2ccc(OC)cc2)c(=O)n3C)cc1` [Example 18, 3-(4-Methoxybenzyl)-1-methyl-2,4-dioxo-1,2,3,4-tetrahydroquinazoline-6-carboxylic acid 4-methoxybenzylamide], the IC50 was 51 nM.
In the case of `COc1ccc(Cn2c(=O)[nH]c3ccc(C(=O)NCc4ccc5c(c4)OCO5)cc3c2=O)cc1` [Example 16, 3-(4-Methoxybenzyl)-2,4-dioxo-1,2,3,4-tetrahydroquinazoline-6-carboxylic acid (benzo[1,3]dioxol-5-ylmethyl)amide] it was 42 nM; in that of `O=C(NCc1ccc2c(c1)OCO2)c1ccc2[nH]c(=O)n(Cc3ccc(Cl)cc3)c(=O)c2c1` [Example 25, 3-(4-Chlorobenzyl)-2,4-dioxo-1,2,3,4-tetrahydroquinazoline-6-carboxylic acid (benzo[1,3]dioxol-5-ylmethyl)amide], 300 nM; in that of `O=C(OCc1ccccc1)c1cnc2[nH]c(=O)n(Cc3ccccc3)c(=O)c2c1` [Example 46, Benzyl 3-benzyl-2,4-dioxo-1,2,3,4-tetrahydroprido[2,3-d]pyrimidine-6-carboxylate], 2.5 nM.
In the case of `Cn1c(=O)n(CCc2ccccc2)c(=O)c2cc(C(=O)NCc3ccc4c(c3)OCO4)ccc21` [Example 15, 1-Methyl-2,4-dioxo-3-phenethyl-1,2,3,4-tetrahydroquinazoline-6-carboxylic acid (benzo[1,3]dioxol-5-ylmethyl)amide], the 50% inhibitory concentration (IC50) is 2250 nM.
As for `CNC(=O)c1ccc(Cn2c(=O)c3cc(C(=O)NCc4ccc(OC)cc4)ccc3n(C)c2=O)cc1` [Example 51, 1-Methyl-3-(4-methylcarbamoyl-benzyl)-2,4-dioxo-1,2,3,4-tetrahydro-quinazoline-6-carboxylic acid 4-methoxy-benzylamide], the figure is 62 nM; as for `O=C(OCc1ccc2c(c1)OCO2)c1ccc2[nH]c(=O)n(Cc3ccccc3)c(=O)c2c1` [Example 41, Benzo[1,3]dioxol-5-ylmethyl3-benzyl-2,4-dioxo-1,2,3,4-tetrahydroquinazoline-6-carboxylate], 29 nM; as for `Cn1c(=O)n(Cc2ccccc2)c(=O)c2cc(C(=O)OCc3ccncc3)ccc21` [Example 40, 4-Pyridylmethyl 3-benzyl-1-methyl-2,4-dioxo-1,3,3,4-tetrahydroquinazoline-6-carboxylate], 28 nM.
As for `O=C(NCc1ccc2c(c1)OCO2)c1ccc2[nH]c(=S)n(Cc3ccccc3)c(=O)c2c1` [Example 48, 3-Benzyl-4-oxo-2-thioxo-1,2,3,4-tetrahydroquinazoline-6-carboxylic acid (benzo[1,3]dioxol-5-ylmethyl)amide], the figure is 16 nM.
In the case of `Cn1c(=O)n(Cc2cccs2)c(=O)c2cc(C(=O)NCc3ccc4c(c3)OCO4)ccc21` [Example 24, 1-Methyl-2,4-dioxo-3-(thien-2-ylmethyl)-1,2,4,4-tetrahydroquinazoline-6-carboxylic acid (benzo[1,3]dioxol-5-ylmethyl)amide] it was 51 nM.
For `O=C(NCc1ccc2c(c1)OCO2)c1ccc2[nH]c(=O)n(Cc3ccncc3)c(=O)c2c1` [Example 20, 2,4-Dioxo-3-(pyrid-4-ylmethyl)-1,2,3,4-tetrahydroquinazoline-6-carboxylic acid (benzo[1,3]dioxol-5ylmethyl)amide], the midpoint of inhibition, the IC50, lay at 15 nM.
The compound `O=C(OCc1ccccc1)c1ccc2[nH]c(=O)n(Cc3ccccc3)c(=O)c2c1` [Example 37, Benzyl 3-benzyl-2,4-dioxo-1,2,3,4-tetrahydroquinazolne-6-carboxylate] had an IC50 of 750 nM.
In the case of `O=C(OCc1ccncc1)c1ccc2[nH]c(=O)n(Cc3cccs3)c(=O)c2c1` [Example 44, 4-Pyridylmethyl 2,4-dioxo-3-(thien-2-ylmethyl)-1,2,3,4-tetrahydroquinazoline-6-carboxylate] it was 4 nM.
Regarding `Cn1c(=O)n(Cc2ccc3c(c2)OCO3)c(=O)c2cc(C(=O)NCc3ccc4c(c3)OCO4)ccc21` [Example 29, 3-(Benzo[1,3]dioxol-5-ylmethyl)-1-methyl-2,4-dioxo-1,2,3,4-tetrahydroquinazoline-6carboxylic acid (benzo[1,3]dioxol-5-ylmethyl)amide], the IC50 amounted to 28 nM.
As for `Cn1c(=O)n(Cc2ccccc2)c(=O)c2cc(C(=O)NCc3ccc4c(c3)OCO4)ccc21` [Example 9, 3-Benzyl-1-methyl-2,4-dioxo-1,2,3,4-tetrahydroquinazoline-6-carboxylic acid (benzo[1,3]dioxol-5-ylmethyl)amide], the figure is 366 nM; as for `O=C(OCc1ccncc1)c1cnc2[nH]c(=O)n(Cc3ccccc3)c(=O)c2c1` [Example 47, 4-Pyridylmethyl 3-benzyl-2,4-dioxo-1,2,3,4-tetrahydropyrido[2,3-α]pyrimidine-6-carboxylate], 1210 nM.
In the case of `COc1ccc(Cn2c(=O)c3cc(C(=O)NCc4ccc5c(c4)OCO5)ccc3n(C)c2=O)cc1` [Example 17, 3-(4-Methoxybenzyl)-1-methyl-2,4-dixo-1 3,4-tetrahydroquinazoline-6-carboxylic acid (benzo[1,3]dioxo-5-ylmethyl)amide] it was 12 nM; in that of `Cn1c(=O)n(C/C=C/c2ccccc2)c(=O)c2cc(C(=O)NCc3ccc4c(c3)OCO4)ccc21` [Example 36, 1-Methyl-2,4-dioxo-3-((E)-3phenylally)-1,2,3,4-tetrahydroquinazoline-6-carboxylic acid (benzo[1,3]dioxol-5-ylmethyl)amide], 600 nM.
As for `O=C(OCc1ccccc1)c1ccc2c(c1)c(=O)n(Cc1ccncc1)c(=O)n2Cc1ccccc1` [Example 43, Benzyl 1-benzyl-2,4-dioxo-3-pyrid-4-ylmethyl-1,2,3,4-tetrahydroquinazoline-6carboxylate], the figure is 11 nM.
`O=C(NCc1ccccc1)c1ccc2[nH]c(=O)n(Cc3cccs3)c(=O)c2c1` [Example 21, 2,4-Dioxo3-(thien-2-ylmethyl)-1,2,3,4-tetrahydroquinazoline-6-carboxylic acid benzylamide] displayed an IC50 of 9 nM.
In the case of `COC(=O)c1ccc(CNC(=O)c2ccc3c(c2)c(=O)n(Cc2ccccc2)c(=O)n3C)cc1` [Example 11, Methyl 4-({[1-(3-benzyl-1-methyl-2,4-dioxo-1,2,3,4-tetrahydroquinazolin-6-yl)methanoyl]amino}methyl)benzoate] it was 167 nM.
Compound `Cn1c(=O)n(Cc2ccccc2)c(=O)c2cc(C(=O)NCc3ccccc3)ccc21` [Example 10, 3-Benzyl-1-methyl-2,4-dioxo-1,2,3,4-tetrahydroquinazoline-6carboxylic acid benzylamide] gave an IC50 of 49 nM.
Take `CCn1c(=O)n(Cc2ccccc2)c(=O)c2cc(C(=O)NCc3ccc4c(c3)OCO4)ccc21` [Example 30, 3-Benzyl-1-ethyl-2,4-dioxo-1,2,3,4-tetraquinazoline-6-carboxylic acid (benzo[1,3]dioxol-5-ylmethyl)amide]: inhibition was half-maximal at 9 nM (IC50).
In the case of `CC(C)Cn1c(=O)n(Cc2ccccc2)c(=O)c2cc(C(=O)NCc3ccc4c(c3)OCO4)ccc21` [Example 32, 3-Benzyl-1-isobutyl-2,4-dioxo-1,2,3,4-tetrahydroquinazoline-6-carboxylic acid (benzo[1,3]dioxol-5-ylmethyl)amide] it was 17 nM; in that of `COc1ccc(CNC(=O)c2ccc3[nH]c(=O)n(Cc4ccccc4)c(=O)c3c2)cc1` [Example 6, 3-Benzyl-2,4-dioxo-1,2,3,4-tetrahydroquinazoline-6-carboxylic acid 4-methoxybenzylamide], 183 nM; in that of `COc1cc(CNC(=O)c2ccc3c(c2)c(=O)n(Cc2ccccc2)c(=O)n3C)ccc1O` [Example 12, 3-Benzy-1-methyl-2,4-dioxo-1,3,3,4-tetrahydroquinazoline-6-carboxylic acid 4-hydroxy-3-methoxybenzylamide], 1320 nM.
In the case of `COc1ccc(CNC(=O)c2ccc3c(c2)c(=O)n(Cc2ccccc2)c(=O)n3C)cc1` [Example 13, 3-Benzyl-1-methyl-2,4-dioxo-1,2,3,4-tetrahydroquinazoline-6-carboxylic acid 4-methoxybenzylamide] it was 5 nM; in that of `Cc1ccc(CNC(=O)c2ccc3[nH]c(=O)n(Cc4ccccc4)c(=O)c3c2)cc1` [Example 8, 3-Benzyl-2,4-dioxo-1,2,3,4-tetrahydroquinazoline-6-carboxylic acid 4-methylbenzylamide], 1870 nM.
In the case of `O=C(OCc1ccncc1)c1ccc2[nH]c(=O)n(Cc3ccc4c(c3)OCO4)c(=O)c2c1` [Example 45, 4-Pyridylmethyl3-(benzo[1,3]dioxol-5-ylmethyl)-2,4-dioxo-1,2,3,4-tetrahydroquinazoline6-carboxylate] it was 7 nM.
Compound `Cn1c(=O)n(Cc2ccc(C(=O)O)cc2)c(=O)c2cc(C(=O)NCc3ccc(O)cc3)ccc21` [Example 49, 4-[6-(4-Hydroxy-benzylcarbamoyl)-1-methyl-2,4-dioxo-1,4-dihydro-2H-quinazolin-3-ylmethyl]-benzoic acid] displayed an IC50 of 7 nM.
As for `Cn1c(=O)[nH]c(=O)c2cc(C(=O)NCc3ccc4c(c3)OCO4)ccc21` [Example 33, 1-Methyl-2,4-dioxo-1,2,3,4-tetrahydrquinazoline-6-carboxylic acid (benzo[1,3]-dioxol-5-ylmethyl)amide], the figure is 3 nM.

Source of the values: patent US20020193377A1, “Quinazolines as MMP-13 inhibitors” (priority 2001, published 2002).
